Assay results taken from US7560466B2, “Methods of treating or preventing autoimmune diseases with 2,4-pyrimidinediamine compounds” (Rigel Pharmaceuticals, Inc., priority 2003, dated 2009).
Like-named read-outs stand apart in the source and are kept apart here. Values belong to the compound of their own block, whether it stands above or below them.

Tests used:
[1] = system: cultured human mast cells (CHMC), IgE-induced degranulation; test: CHMC low cell density IgE activation: tryptase assay; format: cell-based
In short: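 Cord-blood CD34+-derived mucosal mast cells (SCF/IL-6 medium), 1000–1500 cells/well, preincubated with compound 1 h at 37°C, then anti-IgE stimulated 30 min at 37°C.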

[2] = system: cultured human mast cells (CHMC), ionomycin-induced degranulation; test: CHMC low cell density ionomycin activation: tryptase assay; format: cell-based; settings: read-out: LD Tryptase, CHMC, Iono, 3pt
[3] = low cell density CHMC, 3-point, read-out: LD Tryptase, CHMC, IgE, 3pt
[4] = low cell density CHMC, 8-point, read-out: LD Tryptase, CHMC, IgE, 8pt
[5] = low cell density CHMC, ionomycin activation, 3-point
[6] = low cell density CHMC, 3pt, read-out: LD Tryptase, CHMC, IgE, 3pt
[7] = low cell density CHMC, 8pt, read-out: LD Tryptase, CHMC, IgE, 8pt
[8] = CHMC low cell density, 3pt, read-out: LD Tryptase, CHMC, IgE, 3pt
[9] = CHMC low cell density, 8pt, read-out: LD Tryptase, CHMC, IgE, 8pt
[10] = CHMC low cell density, ionomycin activation, 3pt
[11] = Homo sapiens, Mast cell, low cell density CHMC, 8pt, read-out: LD Tryptase, CHMC, IgE, 8pt
[12] = Homo sapiens, Mast cell, low cell density CHMC, ionomycin activation (2 μM final), 3pt
[13] = low cell density CHMC, ionomycin activation, 3pt

Compound: CN1CCN(c2cccc(Nc3ncc(F)c(Nc4ccc5c(n4)NCCO5)n3)c2)CC1 [Compound 1142, N4-(3,4-Dihydro-2H,4H-5-pyrid[1,4]oxazin-6-yl)-5-fluoro-N2-[3-(4-methylpiperazino)phenyl]-2,4-pyrimidinediamine]
IC50 [1, 6]: < 10 µM
IC50 [1, 7]: < 10 µM
IC50 ([2]; low cell density CHMC, ionomycin activation (2 μM final), 3pt): > 10 µM

Compound: COC(=O)C=NC(=O)c1ccc(Nc2ncc(F)c(Nc3ccc4c(c3)NC(=O)[C@@H](C)O4)n2)cc1 [Compound 1272, (R)-5-Fluoro-N2-[4-(N-methoxycarbonylmethyleneamino)carbonylphenyl]-N4-(2-methyl-3-oxo-2H,4H-benz[1,4]oxazin-6-yl)-2,4-pyrimidinediamine]
IC50 [1, 11]: < 10 µM
IC50 [2, 12]: > 10 µM

Compound: CN1C(=O)C(C)(C)Oc2ccc(Nc3nc(Nc4cccc(-c5cnco5)c4)ncc3F)nc21 [Compound 1017, 5-Fluoro-N2-[3-(oxazol-5-yl)phenyl]-N4-[3-oxo-2,2,4-trimethyl-5-pyrid[1,4]oxazin-6-yl]-2,4-pyrimidinediamine]
IC50 [1, 3]: < 10 µM
IC50 [1, 4]: < 10 µM
IC50 [2, 5]: > 10 µM

Compound: Cn1ncc2ccc(Nc3ncc(F)c(Nc4ccc5c(n4)NCC(C)(C)O5)n3)cc21 [Compound 1052, N4-(3,4-Dihydro-2,2-dimethyl-4H-5-pyrid[1,4]oxazin-6-yl)-5-fluoro-N2-(1-methylindazol-6-yl)-2,4-pyrimidinediamine]
IC50 [1, 3]: < 10 µM
IC50 [1, 4]: < 10 µM
IC50 [2, 5]: < 10 µM

Compound: Cc1cc(Nc2ncc(F)c(Nc3ccc4c(n3)NC(=O)C(C)(C)O4)n2)cc(Cl)c1O [Compound 996, N2-(3-Chloro-4-hydroxy-5-methylphenyl)-N4-(2,2-dimethyl-3-oxo-4H-5-pyrid[1,4]oxazin-6-yl)-5-fluoro-2,4-pyrimidinediamine]
IC50 [1, 8]: < 10 µM
IC50 [1, 9]: < 10 µM
IC50 [2, 10]: > 10 µM

Compound: CNC(=O)COc1cccc(Nc2ncc(F)c(Nc3ccc4c(c3)N(C)C(=O)CS4)n2)c1 [Compound 259, 5-Fluoro-N2-[3-(N-methylamino)carbonylmethyleneoxyphenyl]-N4-(4-methyl-3-oxo-2H-benzo[1,4]thiazin-6-yl)-2,4-pyrimidinediamine]
IC50 [1, 6]: < 10 µM
IC50 [1, 7]: < 10 µM
IC50 [2, 13]: > 10 µM

Compound: CCOC(=O)COc1c(C)cc(Nc2ncc(F)c(Nc3ccc4c(n3)NC(=O)C(C)(C)O4)n2)cc1Cl [Compound 1042, N2-(3-Chloro-4-ethoxycarbonylmethyleneoxy-5-methylphenyl)-N4-(2,2-dimethyl-3-oxo-4H-5-pyrid[1,4]oxazin-6-yl)-5-fluoro-2,4-pyrimidinediamine]
IC50 [1, 3]: > 10 µM
IC50 [2, 5]: > 10 µM

Compound: CN(C)c1ncc(F)c(N(C)c2ccc3c(c2)OCCO3)n1 [Compound 462, N2-Dimethyl-N4-(3,4-ethylenedioxyphenyl)-5-fluoro-N4-methyl-2,4-pyrimidinediamine]
IC50 [1, 8]: > 10 µM
IC50 [2, 10]: > 10 µM

Compound: CCOC(=O)COc1c(C)cc(Nc2ncc(F)c(Nc3ccc4c(n3)NC(=O)C(C)(C)O4)n2)cc1C [Compound 1038, N2-(3,5-Dimethyl-4-ethoxycarbonylmethyleneoxyphenyl)-N4-(2,2-dimethyl-3-oxo-4H-5-pyrid[1,4]oxazin-6-yl)-5-fluoro-2,4-pyrimidinediamine]
IC50 [1, 4]: < 10 µM
IC50 [2, 5]: > 10 µM

Compound: CN1C(=O)C(C)(C)Oc2ccc(Nc3nc(Cl)ncc3F)nc21 [Compound 1006, 2-Chloro-5-fluoro-N4-(3-oxo-2,2,4-trimethyl-5-pyrid[1,4]oxazin-6-yl)-4-pyrimidinea mine]
IC50 [1, 8]: > 10 µM
IC50 [2, 10]: > 10 µM

Compound: Cc1cc(C)cc(Nc2ncc(F)c(Nc3ccc4c(c3)NCC(CCO)O4)n2)c1 (stereo not drawn) [Compound 255, N4-[2,3-Dihydro-2-(2-hydroxyethyl)-2H,4H-benz[1,4]oxazin-6-yl]-N2-(3,5-dimethylphenyl)-5-fluoro-2,4-pyrimidinediamine]
IC50 [1, 6]: < 10 µM
IC50 [1, 7]: < 10 µM
IC50 [2, 13]: > 10 µM

Compound: COC(=O)C=NC(=O)c1ccc(Nc2ncc(F)c(Nc3ccc4c(c3)NC(=O)[C@H](C)O4)n2)cc1 [Compound 1271, (S)-5-Fluoro-N2-[4-(N-methoxycarbonylmethyleneamino)carbonylphenyl]-N4-(2-methyl-3-oxo-2H,4H-benz[1,4]oxazin-6-yl)-2,4-pyrimidinediamine]
IC50 [1, 11]: < 10 µM
IC50 [2, 12]: > 10 µM

Compound: CNC(=O)COc1cccc(Nc2ncc(F)c(N(C)c3ccc4c(c3)OCCO4)n2)c1 [Compound 385, N4-(3,4-Ethylenedioxyphenyl)-5-fluoro-N4-methyl-N2-[3-(N-methylamino)carbonylmethyleneoxyphenyl]-2,4-pyrimidinediamine]
IC50 [1, 8]: < 10 µM
IC50 [1, 9]: < 10 µM
IC50 [2, 10]: > 10 µM

Compound: CCOC(=O)COc1c(C)cc(Nc2ncc(F)c(Nc3ccc4c(c3)NC(=O)C(C)(C)O4)n2)cc1Cl [Compound 1014, N2-[3-Chloro-4-ethoxycarbonylmethyleneoxy-5-methylphenyl]-N4-(2,2-dimethyl-3-oxo-4H-benz[1,4]oxazin-6-yl)-5-fluoro-2,4-pyrimidinediamine]
IC50 [1, 3]: < 10 µM
IC50 [1, 4]: < 10 µM
IC50 [2, 5]: < 10 µM

The next lines start with the values.

IC50 [1, 3]: < 10 µM
IC50 [1, 4]: < 10 µM
IC50 [2, 5]: > 10 µM
Compound: CC(C)n1ncc2ccc(Nc3ncc(F)c(Nc4ccc5c(n4)NC(=O)C(C)(C)O5)n3)cc21 [Compound 1050, N4-(2,2-Dimethyl-3-oxo-4H-5-pyrid[1,4]oxazin-6-yl)-N2-(1-isopropylindazol-6-yl)-5-fluoro-2,4-pyrimidinediamine]

IC50 [1, 3]: < 10 µM
IC50 [1, 4]: < 10 µM
IC50 [2, 5]: > 10 µM
Compound: CN1CCN(c2ccc(Nc3ncc(F)c(Nc4ccc5c(n4)NCCO5)n3)cc2)CC1 [Compound 1141, N4-(3,4-Dihydro-2H,4H-5-pyrid[1,4]oxazin-6-yl)-5-fluoro-N2-[4-(4-methylpiperazino)phenyl]-2,4-pyrimidinediamine]

IC50 [1, 8]: < 10 µM
IC50 [1, 9]: < 10 µM
IC50 [2, 10]: < 10 µM
Compound: CNS(=O)(=O)c1ccc(Nc2ncc(F)c(Nc3ccc4c(c3)NC(=O)C(C)(C)O4)n2)cc1OC [Compound 496, N4-(2,2-Dimethyl-3-oxo-4H-benz[1,4]oxazin-6-yl)-5-fluoro-N2-[3-methoxyphenyl-4-(methylamino)sulfonyl]-2,4-pyrimidinediamine]

IC50 [1, 3]: < 10 µM
IC50 [1, 4]: < 10 µM
IC50 [2, 5]: > 10 µM
Compound: CNC(=O)COc1cccc(Nc2ncc(F)c(N(C)c3ccc4c(c3)NC(=O)C(C)(C)O4)n2)c1 [Compound 1022, N4-(2,2-Dimethyl-3-oxo-4H-benz[1,4]oxazin-6-yl)-5-fluoro-N4-methyl-N2-[3-(N-methylamino)carbonylmethyleneoxyphenyl]-2,4-pyrimidinediamine]

IC50 [1, 6]: < 10 µM
IC50 [2, 13]: > 10 µM
Compound: NC(=S)c1cccc(Nc2ncc(F)c(Nc3ccc4c(c3)NC(=O)CO4)n2)c1 [Compound 261, N2-(3-Benzothioamide)-5-fluoro-N4-(3-oxo-2H,4H-benz[1,4]oxazin-6-yl)-2,4-pyrimidinediamine]

IC50 [1, 8]: < 10 µM
IC50 [2, 10]: > 10 µM
Compound: CC(=O)N1CCN(c2ccc(Nc3ncc(F)c(Nc4ccc5c(c4)OC(F)(F)C(F)(F)O5)n3)cc2)CC1 [Compound 432]

IC50 [1, 8]: < 10 µM
IC50 [2, 10]: > 10 µM
Compound: CNC(=O)COc1cccc(Nc2ncc(F)c(N(CC(=O)OC)c3ccc4c(c3)OCCO4)n2)c1 [Compound 446, N4-(3,4-Ethylenedioxyphenyl)-5-fluoro-N4-(methoxycarbonylmethyl)-N2-[3-(N-methylamino)carbonylmethyleneoxyphenyl]-2,4-pyrimidinediamine]

IC50 [1, 3]: < 10 µM
IC50 [1, 4]: < 10 µM
IC50 [2, 5]: > 10 µM
Compound: CNC(=O)COc1cccc(Nc2ncc(F)c(Nc3ccc4c(n3)NCC(C)(C)O4)n2)c1 [Compound 1053, N4-(3,4-Dihydro-2,2-dimethyl-4H-5-pyrid[1,4]oxazin-6-yl)-5-fluoro-N2-[3-(N-methylamino)carbonylmethyleneoxyphenyl]-2,4-pyrimidinediamine]

IC50 [1, 6]: < 10 µM
IC50 [1, 7]: < 10 µM
IC50 [2, 13]: > 10 µM
Compound: Fc1cnc(Nc2ccc(-c3cnco3)cc2)nc1Nc1ccc2c(c1)NCCO2 [Compound 222, N4-(3,4-Dihydro-2H,4H-Benz[1,4]oxazin-6-yl)-5-fluoro-N2-[4-(oxazol-5-yl)phenyl]-2,4-pyrimidinediamine]

IC50 [1, 6]: < 10 µM
IC50 [1, 7]: < 10 µM
IC50 [2, 13]: > 10 µM
Compound: CN1CCOc2ccc(Nc3nc(Nc4ccc(-c5ncco5)cc4)ncc3F)cc21 [Compound 243, N4-(2,3-Dihydro-4-methyl-2H-benz[1,4]oxazin-6-yl)-5-fluoro-N2-[4-(oxazol-2-yl)phenyl]-2,4-pyrimidinediamine]

IC50 [1, 3]: < 10 µM
IC50 [1, 4]: < 10 µM
IC50 [2, 5]: > 10 µM
Compound: CC1(C)Oc2ccc(Nc3nc(Nc4cccc(-c5ncco5)c4)ncc3F)nc2NC1=O [Compound 1028, N4-(2,2-Dimethyl-3-oxo-4H-5-pyrid[1,4]oxazin-6-yl)-5-fluoro-N2-[3-(oxazol-2-yl)phenyl]-2,4-pyrimidinediamine]

IC50 [1, 6]: < 10 µM
IC50 [1, 7]: < 10 µM
IC50 [2, 13]: > 10 µM
Compound: CNC(=O)COc1cccc(Nc2ncc(F)c(Nc3ccc4c(c3)NC(=O)CS4)n2)c1 [Compound 254, 5-Fluoro-N2-[3-(N-methylamino)carbonylmethyleneoxyphenyl]-N4-(3-oxo-2H,4H-benzo[1,4]thiazin-6-yl)-2,4-pyrimidinediamine]
